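Step 1: Grow cells in 96-well plates. Step 2: Expose to compound for 48 hours at 5 concentrations. Step 3: Interpolate endpoints linearly; if unreached, use highest concentration. Here, GI50 denotes the concentration required for 50% inhibition of growth. TGI denotes the concentration required for complete inhibition of growth.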
What was measured:
Assay in all cases: inhibition of tumour cell growth, NCI panel, 48 h; in the data active = GI50 below about 0.43 µM; inactive = the rest
UACC-257 melanoma = tested on: UACC-257 melanoma
TK-10 renal = tested on: TK-10 renal
HL-60(TB) leukemia = tested on: HL-60(TB) leukemia
OVCAR-3 ovarian = tested on: OVCAR-3 ovarian
K-562 leukemia = tested on: K-562 leukemia
LOX IMVI melanoma = tested on: LOX IMVI melanoma
A549 NSCLC = tested on: A549 NSCLC
HCT-116 colon = tested on: HCT-116 colon
MOLT-4 leukemia = tested on: MOLT-4 leukemia
OVCAR-4 ovarian = tested on: OVCAR-4 ovarian
MALME-3M melanoma = tested on: MALME-3M melanoma
UACC-62 melanoma = tested on: UACC-62 melanoma
RPMI-8226 leukemia = tested on: RPMI-8226 leukemia
HCT-15 colon = tested on: HCT-15 colon
SN12C renal = tested on: SN12C renal
CCRF-CEM leukemia = tested on: CCRF-CEM leukemia
U251 CNS = tested on: U251 CNS
SF-268 CNS = tested on: SF-268 CNS
MDA-MB-435 = tested on: MDA-MB-435
HOP-92 NSCLC = tested on: HOP-92 NSCLC
SF-295 CNS = tested on: SF-295 CNS
NCI-H460 lung = tested on: NCI-H460 lung
MDA-MB-231 breast = tested on: MDA-MB-231 breast
SW-620 colon = tested on: SW-620 colon
DU-145 prostate = tested on: DU-145 prostate
COLO 205 colon = tested on: COLO 205 colon
SK-MEL-2 melanoma = tested on: SK-MEL-2 melanoma
KM12 colon = tested on: KM12 colon
NCI-H522 lung = tested on: NCI-H522 lung
PC-3 prostate = tested on: PC-3 prostate
UO-31 renal = tested on: UO-31 renal
786-0 renal = tested on: 786-0 renal
SK-MEL-28 melanoma = tested on: SK-MEL-28 melanoma
HOP-62 NSCLC = tested on: HOP-62 NSCLC
NCI-H23 lung = tested on: NCI-H23 lung
RXF 393 renal = tested on: RXF 393 renal
CAKI-1 renal = tested on: CAKI-1 renal
SR leukemia = tested on: SR leukemia
ACHN renal = tested on: ACHN renal
SNB-19 CNS = tested on: SNB-19 CNS
SF-539 CNS = tested on: SF-539 CNS
HS 578T breast = tested on: HS 578T breast
M14 melanoma = tested on: M14 melanoma
NCI/ADR-RES ovarian = tested on: NCI/ADR-RES ovarian
OVCAR-8 ovarian = tested on: OVCAR-8 ovarian
EKVX NSCLC = tested on: EKVX NSCLC
NCI-H226 lung = tested on: NCI-H226 lung
BT-549 breast = tested on: BT-549 breast
OVCAR-5 ovarian = tested on: OVCAR-5 ovarian
SK-MEL-5 melanoma = tested on: SK-MEL-5 melanoma
A498 renal = tested on: A498 renal
HT29 colon = tested on: HT29 colon
T-47D breast = tested on: T-47D breast
MCF7 breast = tested on: MCF7 breast
SK-OV-3 ovarian = tested on: SK-OV-3 ovarian
SNB-75 CNS = tested on: SNB-75 CNS
HCC-2998 colon = tested on: HCC-2998 colon
IGROV1 ovarian = tested on: IGROV1 ovarian

COc1cc(-c2cnn(C)c2)ccc1Nc1ncc2ccnc(N[C@@H](C)C(C)(C)C)c2n1
> 100 µM: TGI (UACC-257 melanoma) | TGI (TK-10 renal) | TGI (HL-60(TB) leukemia) | TGI (OVCAR-3 ovarian) | TGI (K-562 leukemia) | TGI (LOX IMVI melanoma) | TGI (A549 NSCLC) | TGI (HCT-116 colon) | TGI (MOLT-4 leukemia) | TGI (OVCAR-4 ovarian) | TGI (MALME-3M melanoma) | TGI (UACC-62 melanoma) | TGI (RPMI-8226 leukemia) | TGI (HCT-15 colon) | TGI (SN12C renal) | TGI (CCRF-CEM leukemia) | TGI (U251 CNS) | TGI (SF-268 CNS) | TGI (MDA-MB-435) | TGI (HOP-92 NSCLC) | TGI (SF-295 CNS) | TGI (NCI-H460 lung) | TGI (MDA-MB-231 breast) | TGI (SW-620 colon) | TGI (DU-145 prostate) | TGI (COLO 205 colon) | TGI (SK-MEL-2 melanoma) | TGI (KM12 colon) | TGI (NCI-H522 lung) | TGI (PC-3 prostate) | TGI (UO-31 renal) | TGI (786-0 renal) | TGI (SK-MEL-28 melanoma) | TGI (HOP-62 NSCLC) | TGI (NCI-H23 lung) | TGI (RXF 393 renal) | TGI (CAKI-1 renal) | TGI (SR leukemia) | TGI (ACHN renal) | TGI (SNB-19 CNS) | TGI (SF-539 CNS) | TGI (HS 578T breast) | TGI (M14 melanoma) | TGI (NCI/ADR-RES ovarian) | TGI (OVCAR-8 ovarian) | TGI (EKVX NSCLC) | TGI (NCI-H226 lung) | TGI (BT-549 breast) | TGI (OVCAR-5 ovarian) | TGI (SK-MEL-5 melanoma) | TGI (A498 renal) | TGI (HT29 colon) | TGI (T-47D breast) | TGI (MCF7 breast) | TGI (SK-OV-3 ovarian) | TGI (SNB-75 CNS) | TGI (HCC-2998 colon) | TGI (IGROV1 ovarian)
inactive: GI50 (UACC-257 melanoma) > 100 µM | GI50 (TK-10 renal) > 79.9 µM | GI50 (HL-60(TB) leukemia) > 100 µM | GI50 (OVCAR-3 ovarian) > 89.8 µM | GI50 (K-562 leukemia) > 72.8 µM | GI50 (LOX IMVI melanoma) 5.43 µM | GI50 (A549 NSCLC) > 45.5 µM | GI50 (HCT-116 colon) 0.467 µM | GI50 (MOLT-4 leukemia) > 69 µM | GI50 (OVCAR-4 ovarian) > 46.8 µM | GI50 (MALME-3M melanoma) > 66 µM | GI50 (UACC-62 melanoma) > 100 µM | GI50 (RPMI-8226 leukemia) > 100 µM | GI50 (HCT-15 colon) 0.651 µM | GI50 (SN12C renal) > 100 µM | GI50 (CCRF-CEM leukemia) > 100 µM | GI50 (U251 CNS) > 55.8 µM | GI50 (SF-268 CNS) > 41.5 µM | GI50 (MDA-MB-435) > 75.1 µM | GI50 (HOP-92 NSCLC) > 56.7 µM | GI50 (SF-295 CNS) > 63.3 µM | GI50 (NCI-H460 lung) 0.819 µM | GI50 (MDA-MB-231 breast) 13.4 µM | GI50 (SW-620 colon) 1.46 µM | GI50 (DU-145 prostate) > 100 µM | GI50 (COLO 205 colon) 1.81 µM | GI50 (SK-MEL-2 melanoma) > 100 µM | GI50 (KM12 colon) 1.51 µM | GI50 (NCI-H522 lung) > 100 µM | GI50 (PC-3 prostate) > 96.1 µM | GI50 (UO-31 renal) > 100 µM | GI50 (786-0 renal) > 31.6 µM | GI50 (SK-MEL-28 melanoma) > 100 µM | GI50 (HOP-62 NSCLC) > 38.3 µM | GI50 (NCI-H23 lung) > 53.7 µM | GI50 (RXF 393 renal) 8.98 µM | GI50 (CAKI-1 renal) > 100 µM | GI50 (SR leukemia) 0.695 µM | GI50 (ACHN renal) 4.29 µM | GI50 (SNB-19 CNS) > 82.3 µM | GI50 (SF-539 CNS) > 57.3 µM | GI50 (HS 578T breast) > 79 µM | GI50 (M14 melanoma) > 63.8 µM | GI50 (NCI/ADR-RES ovarian) > 43.4 µM | GI50 (OVCAR-8 ovarian) > 49.6 µM | GI50 (EKVX NSCLC) > 100 µM | GI50 (NCI-H226 lung) > 83.3 µM | GI50 (BT-549 breast) > 68.5 µM | GI50 (OVCAR-5 ovarian) 97.8 µM | GI50 (SK-MEL-5 melanoma) > 79 µM | GI50 (A498 renal) > 100 µM | GI50 (HT29 colon) > 50.6 µM | GI50 (T-47D breast) > 100 µM | GI50 (MCF7 breast) > 63.1 µM | GI50 (SK-OV-3 ovarian) > 68.1 µM | GI50 (SNB-75 CNS) 3.26 µM | GI50 (HCC-2998 colon) > 100 µM | GI50 (IGROV1 ovarian) > 100 µM

— PubChem BioAssay (NCI)
